Test results reported in patent US20060069132A1, “Azolecarboxamide herbicides” (priority 2004, published 2006).

Legend:
barnyardgrass [1] = assay: Test A pre-/postemergence herbicide test; assay type: in vivo, Echinochloa crus-galli
Procedure, shortened: (§1)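 Seeds sown in sandy loam received a preemergence directed soil spray of compound in non-phytotoxic solvent with surfactant; postemergence plants (2–10 cm, one- to two-leaf stage) were sprayed to runoff at the same time. After ~10 days in greenhouse, injury was rated visually versus untreated controls (0 = no effect, 100 = complete control).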

large crabgrass [2] = assay: Test A pre-/postemergence herbicide test; assay type: in vivo, Digitaria sanguinalis
Procedure, shortened: as §1

giant foxtail [3] = assay: Test A pre-/postemergence herbicide test; assay type: in vivo, Setaria faberi
Procedure, shortened: as §1

morningglory [4] = assay: Test A pre-/postemergence herbicide test; assay type: in vivo, Ipomoea spp.
Procedure, shortened: as §1

redroot pigweed = assay: Test A pre-/postemergence herbicide test; assay type: in vivo, Amaranthus retroflexus
Procedure, shortened: as §1

velvetleaf [5] = assay: Test A pre-/postemergence herbicide test; assay type: in vivo, Abutilon theophrasti
Procedure, shortened: as §1

barnyardgrass [6] = assay: Test B pre-/postemergence herbicide test; assay type: in vivo, Echinochloa crus-galli
Procedure, shortened: (§2)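 Greenhouse pot assay with simultaneous preemergence (treated seed) and postemergence (2–18 cm seedlings) applications of surfactant-containing, non-phytotoxic solvent formulations. Response scored visually 13–15 days later on a 0–100 scale, 100 meaning complete control.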

Surinam grass = assay: Test B pre-/postemergence herbicide test; assay type: in vivo, Urochloa decumbens
Procedure, shortened: (§3)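 Visual rating, 0 (no effect) to 100 (complete control), versus untreated controls after 13–15 d in greenhouse. Pre- and postemergence applications (postemergence plants 2–18 cm, 1–4 leaves); flooded paddy arm at 2-leaf stage. Compounds in non-phytotoxic solvent plus surfactant.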

cocklebur = assay: Test B pre-/postemergence herbicide test; assay type: in vivo, Xanthium strumarium
Procedure, shortened: as §2

corn = assay: Test B pre-/postemergence herbicide test; assay type: in vivo, Zea mays
Procedure, shortened: as §3

large crabgrass [7] = assay: Test B pre-/postemergence herbicide test; assay type: in vivo, Digitaria sanguinalis
Procedure, shortened: as §3

giant foxtail [8] = assay: Test B pre-/postemergence herbicide test; assay type: in vivo, Setaria faberi
Procedure, shortened: as §3

lambsquarters = assay: Test B pre-/postemergence herbicide test; assay type: in vivo, Chenopodium album
Procedure, shortened: as §3

morningglory [9] = assay: Test B pre-/postemergence herbicide test; assay type: in vivo, Ipomoea coccinea
Procedure, shortened: as §2

pigweed = assay: Test B pre-/postemergence herbicide test; assay type: in vivo, Amaranthus retroflexus
Procedure, shortened: as §3

rice [10] = assay: Test B pre-/postemergence herbicide test; assay type: in vivo, Oryza sativa; conditions: preemergence, 125 g ai/ha; 0 to 100 scale, 0 is no effect, 100 is complete control
Procedure, shortened: as §3

velvetleaf [11] = assay: Test B pre-/postemergence herbicide test; assay type: in vivo, Abutilon theophrasti
Procedure, shortened: as §3

blackgrass = assay: Test B postemergence herbicide test; assay type: in vivo, Alopecurus myosuroides; conditions: scale 0 (no effect) to 100 (complete control)
Procedure, shortened: (§4)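 Greenhouse test; postemergence application to plants at 1–4 leaves (2–18 cm); paddy species at 2 leaves; evaluated visually vs controls at 13–15 days; scale 0–100 (100 = complete control).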

wheat = assay: Test B postemergence herbicide test; assay type: in vivo, Triticum aestivum; set-up: key to Wheat plant response rating: 0 = no effect, 100 = complete control; conditions: scale 0 (no effect) to 100 (complete control)
Procedure, shortened: (§5)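 Postemergence plants were sprayed with formulated test chemicals at 2 to 18 cm height (1- to 4-leaf stage); paddy species were grown to the 2-leaf stage. After 13 to 15 days in a greenhouse, injury was rated visually against untreated controls on a 0–100 scale (0 = no effect, 100 = complete control).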

wild oat = assay: Test B postemergence herbicide test; assay type: in vivo, Avena fatua; conditions: scale 0 (no effect) to 100 (complete control)
Procedure, shortened: as §5

rice [12] = assay: Test B flooded paddy test; assay type: in vivo, Oryza sativa; conditions: 1000 g ai/ha, visual rating, scale 0 to 100 (0 no effect, 100 complete control), 13 to 15 days
Procedure, shortened: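 Read-out: visual comparison with controls, scored 0 to 100, where 100 means complete control and 0 no effect. Formulated chemicals were applied postemergence to plants 2–18 cm tall (1- to 4-leaf), or to flooded-paddy plants at the 2-leaf stage, then held 13 to 15 days under glass.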

[13] = tested on: small flower umbrella sedge; assay: Test B flooded paddy test; assay type: in vivo, Cyperus difformis; conditions: 1000 g ai/ha, visual rating, scale 0 to 100 (0 no effect, 100 complete control), 13 to 15 days
Procedure, shortened: as §4

ducksalad = assay: Test B flooded paddy test; assay type: in vivo, Heteranthera limosa; conditions: 1000 g ai/ha, visual rating, scale 0 to 100 (0 no effect, 100 complete control), 13 to 15 days
Procedure, shortened: as §4

barnyardgrass [14] = assay: Test B flooded paddy test; assay type: in vivo, Echinochloa crus-galli; conditions: 1000 g ai/ha, visual rating, scale 0 to 100 (0 no effect, 100 complete control), 13 to 15 days
Procedure, shortened: as §4

[15] = Postemergence, 500 g ai/ha, 0 to 100 scale, 0 no effect, 100 complete control
[16] = Postemergence, 2000 g ai/ha, 0 to 100 scale, 0 no effect, 100 complete control
[17] = Preemergence, 500 g ai/ha, visual rating, 0 to 100 scale (0 no effect, 100 complete control)
[18] = Preemergence, 2000 g ai/ha, 0 to 100 scale, 0 no effect, 100 complete control
[19] = Postemergence, 500 g ai/ha, visual rating after 13 to 15 days, scale 0 (no effect) to 100 (complete control)
[20] = Preemergence, 500 g ai/ha, scale 0 to 100
[21] = postemergence, 125 g ai/ha, visual rating, scale 0 (no effect) to 100 (complete control)
[22] = preemergence, 125 g ai/ha, 0 to 100 scale, 0 is no effect, 100 is complete control
[23] = Postemergence, 500 g ai/ha, visual rating after 13 to 15 days
[24] = postemergence, 125 g ai/ha, visual rating

In the case of `CCOC(=O)c1cc(NC(=O)c2cc(C(C)(C)C)nn2CC)ccc1F` [Compound 89], the “Barnyardgrass plant response rating” value (barnyardgrass [1]; [15]) is reported as 20, the “Plant response rating, Barnyardgrass” value (barnyardgrass [1]; [16]) is reported as 20 and the “Barnyardgrass plant response rating” value (barnyardgrass [1]; [17]) is reported as 0. For the same compound, the “Barnyardgrass plant response rating” value (barnyardgrass [1]; [18]) was 0, the “Crabgrass, Large plant response rating” value (large crabgrass [2]; [15]) was 20 and the “Plant response rating, Crabgrass, Large” value (large crabgrass [2]; [16]) was 25. The “Crabgrass, Large plant response rating” value (large crabgrass [2]; [17]) was 0, the “Crabgrass, Large plant response rating” value (large crabgrass [2]; [18]) was 0 and the “Foxtail, Giant plant response rating” value (giant foxtail [3]; [15]) was 20. For the same compound, the “Plant response rating, Foxtail, Giant” value (giant foxtail [3]; [16]) was 20, the “Foxtail, Giant plant response rating” value (giant foxtail [3]; [17]) was 0 and the “Foxtail, Giant plant response rating” value (giant foxtail [3]; [18]) was 0. The “Morningglory plant response rating” value (morningglory [4]; [15]) was 20, the “Plant response rating, Morningglory” value (morningglory [4]; [16]) was 15 and the “Morningglory plant response rating” value (morningglory [4]; [17]) was 0. For the same compound, the “Morningglory plant response rating” value (morningglory [4]; [18]) was 10, the “Pigweed plant response rating” value (redroot pigweed; [15]) was 20 and the “Plant response rating, Pigweed” value (redroot pigweed; [16]) was 30. The “Pigweed plant response rating” value (redroot pigweed; [17]) was 0, the “Pigweed plant response rating” value (redroot pigweed; [18]) was 10 and the “Velvetleaf plant response rating” value (velvetleaf [5]; [15]) was 20. The “Plant response rating, Velvetleaf” value (velvetleaf [5]; [16]) was 20, the “Velvetleaf plant response rating” value (velvetleaf [5]; [17]) was 0 and the “Velvetleaf plant response rating” value (velvetleaf [5]; Preemergence, 2000 g ai/ha, visual rating, 0 to 100 scale (0 no effect, 100 complete control)) was 10. The “Plant response rating, Barnyardgrass” value (barnyardgrass [6]; [19]) was 20, the “Barnyardgrass plant response rating” value (barnyardgrass [6]; [20]) was 0 and the “Barnyardgrass plant response rating” value (barnyardgrass [6]; [21]) was 10. For the same compound, the “Plant response rating, Barnyardgrass” value (barnyardgrass [6]; [22]) was 0, the “Plant response rating, Surinam Grass” value (Surinam grass; [19]) was 20 and the “Surinam Grass plant response rating” value (Surinam grass; [21]) was 10. For the same compound, the “Plant response rating, Surinam Grass” value (Surinam grass; [22]) was 0, the “Plant response rating, Cocklebur” value (cocklebur; [19]) was 90 and the “Cocklebur plant response rating” value (cocklebur; [20]) was 0. The “Cocklebur plant response rating” value (cocklebur; [21]) was 70, the “Plant response rating, Cocklebur” value (cocklebur; [22]) was 0 and the “Plant response rating, Corn” value (corn; [19]) was 20. The “Corn plant response rating” value (corn; [20]) was 0, the “Corn plant response rating” value (corn; [21]) was 10 and the “Plant response rating, Corn” value (corn; [22]) was 0. For the same compound, the “Plant response rating, Crabgrass, Large” value (large crabgrass [7]; [19]) was 20, the “Crabgrass, Large plant response rating” value (large crabgrass [7]; [20]) was 80 and the “Crabgrass, Large plant response rating” value (large crabgrass [7]; [21]) was 10. The “Plant response rating, Crabgrass, Large” value (large crabgrass [7]; [22]) was 0, the “Plant response rating, Foxtail, Giant” value (giant foxtail [8]; [19]) was 20 and the “Foxtail, Giant plant response rating” value (giant foxtail [8]; [20]) was 0. The “Foxtail, Giant plant response rating” value (giant foxtail [8]; [21]) was 20, the “Plant response rating, Foxtail, Giant” value (giant foxtail [8]; [22]) was 0 and the “Plant response rating, Lambsquarters” value (lambsquarters; [19]) was 60. For the same compound, the “Lambsquarters plant response rating” value (lambsquarters; [21]) was 30, the “Plant response rating, Lambsquarters” value (lambsquarters; [22]) was 0 and the “Plant response rating, Morningglory” value (morningglory [9]; [19]) was 50. For the same compound, the “Morningglory plant response rating” value (morningglory [9]; [21]) was 20, the “Plant response rating, Morningglory” value (morningglory [9]; [22]) was 0 and the “Plant response rating, Pigweed” value (pigweed; [19]) was 40. For the same compound, the “Pigweed plant response rating” value (pigweed; [21]) was 20, the “Plant response rating, Pigweed” value (pigweed; [22]) was 0 and the “Plant response rating, Rice” value (rice [10]) was 0. The “Plant response rating, Velvetleaf” value (velvetleaf [11]; [19]) was 50, the “Velvetleaf plant response rating” value (velvetleaf [11]; [21]) was 30 and the “Plant response rating, Velvetleaf” value (velvetleaf [11]; [22]) was 0. For the same compound, the “Plant response rating, Blackgrass” value (blackgrass; [23]) was 10, the “Blackgrass plant response rating” value (blackgrass; [24]) was 0 and the “Plant response rating, Wheat” value (wheat; [23]) was 20. For the same compound, the “Wheat plant response rating” value (wheat; [24]) was 20, the “Plant response rating, Oat, Wild” value (wild oat; [23]) was 30 and the “Oat, Wild plant response rating” value (wild oat; [24]) was 20. For the same compound, the “Rice plant response rating” value (rice [12]) was 10, the “Sedge, Umbrella plant response rating” value [13] was 60 and the “Ducksalad plant response rating” value (ducksalad) was 0. For the same compound, the “Barnyardgrass plant response rating” value (barnyardgrass [14]) was 10.
